Tests used:
[1] = tested on: SH-SY-5Y cells; assay: cells; assay type: cell-based; conditions: for % Inhibition of Cell Growth with Aβ1-42 / % Inhibition of Cell Growth without Aβ1-42: compound 1 mM 24 h; for % Inhibition of Cell Growth with Aβ1-42: then 20 μM Aβ1-42 24 h
Experimental: (§1) Cytotoxicity Studies: Protection against β-amyloid 1-42 cytotoxicity in SH-SY-5Y cells was measured by standard MTT assays. SH-SY-5Y cells were seeded in 96-well plates at the density of 30,000 cells/well. After overnight incubation, the cells were exposed to GSH or Ψ-GSH at a concentration of 1 mM for 24 h at 37° C. After 24 h of incubation, the drug-containing medium was replaced with media containing 20 μM β-amyloid 1-42 peptide and the incubation was allowed to continue for additional 24 hours after the addition of the drugs. At the end of the incubation, 20 μL of MTT stock solution (5 mg/mL) was added to each well and incubated for 3 h at 37° C. The MTT reaction medium was discarded and the purple-blue MTT formazan crystals were dissolved by the addition of 100 μL of 0.1 N HCl in isopropanol. The optical density (OD), a reflection mitochondrial function of the viable cells, was read directly with a microplate reader (BioTek SynergyHT, VT, USA) at 580 nm and a reference wavelength of 680 nm. Concentration response graphs were generated for each drug using GraphPad Prism software (GraphPad Software, Inc., San Diego, Calif., USA). Results are expressed as mean percent inhibition of β-amyloid toxicity with the standard error of the mean. In another set of experiments, cells were preincubated with a glyoxalase I inhibitor, S-(p-bromobenzylglutathione) (1 mM) for 24 hours before addition of βamyloid1-42 peptide (20 μM).
as §1, with “Protection” for “Cytotoxicity Studies: Protection”, “against β-amyloid^1-42” for “against β-amyloid 1-42”, “cells/well. […]” for “cells/well. After overnight incubation, the cells were exposed to GSH or Ψ-GSH at a concentration of 1 mM for 24 h at 37° C.”, “μM β-amyloid^1-42” for “μM β-amyloid 1-42”, “20 μl,” for “20 μL”, “mean.” for “mean. In another set of experiments, cells were preincubated with a glyoxalase I inhibitor, S-(p-bromobenzylglutathione) (1 mM) for 24 hours before addition of βamyloid1-42 peptide (20 μM).”

[2] = tested on: Swiss Webster Mice; assay: ACP (acetaminophen) overdose rescue and effects on normal liver; assay type: in vivo; conditions: 370 mg/kg ACP + NAC 7.35 mmol/kg
Experimental: 36-Male Swiss Webster Mice (HSD) were fasted over-night and then brought to the lab at 8:00 am the following day and weighed. Food was kept out of the cages until after the final drug injection. Mice were divided into treatment groups as below in Table 2.
Thirty minutes post overdose with 370 mg/kg ACP, the following were evaluated for the groups in Table 2:
N-acetylcysteine (NAC) at 7.35 mmol/kg;
Ψ-GSH at three different doses, 3.67, 2.45 and 1.22 mmol/kg; and
examine effects of Ψ-GSH on normal liver at rescue doses.

[3] = molecular target: T1, yeast glyoxalase I (Saccharomyces cerevisiae, UniProt P50107); assay: Glyoxalase I enzyme kinetics assay; assay type: biochemical; conditions: yeast Glx-I, MG, 30° C., phosphate buffer pH 6.6
T1 construct: purchased Sigma
T1 sequence (P50107 1-326): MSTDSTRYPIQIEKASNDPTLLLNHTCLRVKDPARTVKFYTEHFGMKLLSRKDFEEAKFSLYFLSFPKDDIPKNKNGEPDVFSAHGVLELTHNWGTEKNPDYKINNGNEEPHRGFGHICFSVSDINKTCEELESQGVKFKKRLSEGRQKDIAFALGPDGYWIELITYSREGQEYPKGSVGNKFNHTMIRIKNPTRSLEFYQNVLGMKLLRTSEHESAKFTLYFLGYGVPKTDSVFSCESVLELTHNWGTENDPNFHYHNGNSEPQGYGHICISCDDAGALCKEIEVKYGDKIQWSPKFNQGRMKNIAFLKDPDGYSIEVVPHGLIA
Experimental: Glyoxalase I Enzyme Kinetics Assay. The glutathione analog, Ψ-GSH and asparthione were examined for their ability to act as substrates for the yeast glyoxalase I mediated […] of MG. The commercial 40% methylglyoxal solution was distilled to remove polymerization products. Enzyme assays were performed (30° C., 0.05 M phosphate buffer (pH 6.6)) using a thermostated Beckman DU® 7400 spectrophotometer. Fresh solutions of GSH, Ψ-GSH and asparthione were prepared on the day of the assays with distilled, deionized water. In each assay, the cell contained a total volume of 3.0 mL which was no more than 6.0 mM with respect to methylglyoxal and 1.3 mM with respect to GSH or its analogs. […] Data were analyzed utilizing an Enzyme kinetics module of Sigmaplot 9.0 from Systat Software Inc.

Compound | % Inhibition of Cell Growth with Aβ1-42 ([1]; SH-SY-5Y) [%] | % Inhibition of Cell Growth without Aβ1-42 ([1]; SH-SY-5Y) [%] | further results
N[C@@H](CCC(=O)N[C@@H](CSCc1ccc(Br)cc1)C(=O)NCC(=O)O)C(=O)O [GSBB, S-p-bromobenzylglutathione, reference compound] | – | – | cell death ([1]; 1 mM compound alone, SH-SY-5Y): 10%; viability at 1000 µM ([1]; Homo sapiens, SH-SY5Y, Aβ in combination with 1 mM GSBB, read-out: Percentage cell viability): 23.6%
CC(=O)N[C@@H](CS)C(=O)O [NAC, N-acetylcysteine, reference compound] | – | – | death of animals in the group [2]: 50%
N[C@@H](CC(=O)N[C@@H](CS)C(=O)NCC(=O)O)C(=O)O [asparthione] | – | – | slope for initial velocity vs. substrate concentration [3]: 0.0132±0.0136
Boc-γ-Gla(OtBu)-Cys-Gly-OtBu [Compound VI] | 18 | 2 | –
Boc-γ-Gla-Cys-Gly-OH [Compound V] | 10 | 1 | –
Boc-γ-Gla[-Cys(StBu)-Gly-OtBu]-OtBu [Compound 7] | 41 | 0 | –
HCl•γ-Gla[-Cys-Gly-OtBu]-OtBu [Compound VIII] | 50 | 1 | –
HCl•γ-Gla[Cys-Gly-OCyP]-OcyP [Compound X] | 27 | 0 | –
HCl•γ-Gla[Cys-Gly-OiPr]-OiPr [Compound IX] | 31 | 0 | –
N-acetyl-γ-Gla-Cys-Gly-OH [IV] | 3 | 0 | –
[γ-Gla-Cys-Gly-OH]2 [Compound XI] | 24 | 1 | –
γ-Glo-Cys-Gly-OH [II] | 56 | 1 | –
γ-Glt-Cys-Gly-OH [III] | 55 | 2 | –
